Measurements as given in patent US20210045385A1, “PYRIDAZINONE-SUBSTITUTED KETOXIMES AS HERBICIDES” (FMC Corporation, priority 2018, published 2021).

How the values were obtained:
Type in all cases: in vivo
[1] = tested on: Italian ryegrass (Lolium mutiflorum); test: Test C preemergence, visual plant response rating
Summary of the method: (§1)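 Visual injury on a 0 (no effect) to 100 (complete control) scale versus untreated controls, scored approximately 10 d after treatment under greenhouse conditions. Treatments used surfactant-containing non-phytotoxic solvent formulations, sprayed onto loam–sand soil preemergence or onto one- to two-leaf plants 2–10 cm tall postemergence.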

[2] = tested on: barnyardgrass (Echinochloa crus-galli); test: Test C preemergence, visual plant response rating
Summary of the method: as §1

[3] = tested on: foxtail, giant (giant foxtail, Setaria faberi); test: Test C preemergence, visual plant response rating
Summary of the method: as §1

[4] = tested on: kochia (Bassia scoparia); test: Test C preemergence, visual plant response rating
Summary of the method: as §1

[5] = tested on: pigweed (Amaranthus retroflexus); test: Test C preemergence, visual plant response rating
Summary of the method: as §1

[6] = tested on: ragweed (common ragweed, Ambrosia artemisiifolia); test: Test C preemergence, visual plant response rating
Summary of the method: as §1

[7] = tested on: Italian ryegrass (Lolium mutiflorum); test: Test C postemergence, visual plant response rating
Summary of the method: as §1

[8] = tested on: barnyardgrass (Echinochloa crus-galli); test: Test C postemergence, visual plant response rating
Summary of the method: as §1

[9] = tested on: blackgrass (Alopecurus myosuroides); test: Test C postemergence, visual plant response rating
Summary of the method: as §1

[10] = tested on: corn (Zea mays); test: Test C postemergence, visual plant response rating
Summary of the method: as §1

[11] = tested on: foxtail, giant (giant foxtail, Setaria faberi); test: Test C postemergence, visual plant response rating
Summary of the method: as §1

[12] = tested on: galium (catchweed bedstraw, Galium aparine); test: Test C postemergence, visual plant response rating
Summary of the method: as §1

[13] = tested on: kochia (Bassia scoparia); test: Test C postemergence, visual plant response rating
Summary of the method: as §1

[14] = tested on: pigweed (Amaranthus retroflexus); test: Test C postemergence, visual plant response rating
Summary of the method: as §1

[15] = tested on: ragweed (common ragweed, Ambrosia artemisiifolia); test: Test C postemergence, visual plant response rating
Summary of the method: as §1

[16] = tested on: wheat (Triticum aestivum); test: Test C postemergence, visual plant response rating
Summary of the method: as §1

[17] = tested on: barnyardgrass (Echinochloa crus-galli); test: Test D flooded paddy test, visual plant response rating; conditions: 250 g ai/ha, scale 0 to 100 (0 no effect, 100 complete control), 13 to 15 d
Summary of the method: (§2)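 Visual injury scores, 0 (no effect) to 100 (complete control), were assigned after 13 to 15 d in the greenhouse by comparison with controls. Test compounds had been added to paddy water covering soil by 3 cm at the 2-leaf stage.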

[18] = tested on: duck salad (Heteranthera limosa); test: as above; conditions: 250 g ai/ha, scale 0 to 100 (0 no effect, 100 complete control), 13 to 15 d
Summary of the method: as §2

[19] = tested on: rice (Oryza sativa); test: as above; conditions: 250 g ai/ha, scale 0 to 100 (0 no effect, 100 complete control), 13 to 15 d
Summary of the method: as §2

[20] = tested on: sedge umbrella (small-flower umbrella sedge, Cyperus difformis); test: as above; conditions: 250 g ai/ha, scale 0 to 100 (0 no effect, 100 complete control), 13 to 15 d
Summary of the method: as §2

[21] = Test C, 31 g ai/ha, 0 is no effect, 100 is complete control
[22] = Test C, 125 g ai/ha, 0 is no effect, 100 is complete control
[23] = Test C, postemergence, 125 g ai/ha

Row | Structure (SMILES) | Ryegrass, Italian plant response rating (0 to 100 scale) [1, 21] | Barnyardgrass plant response rating (0 to 100 scale) [2, 21] | Foxtail, Giant plant response rating (0 to 100 scale) [3, 21] | Kochia plant response rating (0 to 100 scale) [4, 21] | Pigweed plant response rating (0 to 100 scale) [5, 21] | Ragweed plant response rating (0 to 100 scale) [6, 21] | Ryegrass, Italian plant response rating (0 to 100 scale) ([7]; Postemergence, 31 g ai/ha) | Ryegrass, Italian plant response rating (0 to 100 scale) [7, 23] | Barnyardgrass plant response rating (0 to 100 scale) ([8]; Postemergence, 31 g ai/ha) | Barnyardgrass plant response rating (0 to 100 scale) [8, 23] | Blackgrass plant response rating (0 to 100 scale) ([9]; Postemergence, 31 g ai/ha) | Blackgrass plant response rating (0 to 100 scale) [9, 23] | Corn plant response rating (0 to 100 scale) ([10]; Postemergence, 31 g ai/ha) | Corn plant response rating (0 to 100 scale) [10, 23] | Foxtail, Giant plant response rating (0 to 100 scale) ([11]; Postemergence, 31 g ai/ha) | Foxtail, Giant plant response rating (0 to 100 scale) [11, 23] | Galium plant response rating (0 to 100 scale) ([12]; Postemergence, 31 g ai/ha) | Galium plant response rating (0 to 100 scale) [12, 23] | Kochia plant response rating (0 to 100 scale) ([13]; Postemergence, 31 g ai/ha) | Kochia plant response rating (0 to 100 scale) [13, 23] | other results
1 | Cc1nn(C)c(=O)c(/C(=N\OC(C)C)c2cccc3cc(Cl)ccc23)c1O [Compound 241] | 0 | 10 | 80 | 0 | 90 | 40 | 0 | 0 | 30 | 60 | 20 | 40 | 10 | 0 | 70 | 80 | 90 | 100 | 0 | 20 | Ryegrass, Italian plant response rating (0 to 100 scale) [1, 22]: 0; Barnyardgrass plant response rating (0 to 100 scale) [2, 22]: 60; Foxtail, Giant plant response rating (0 to 100 scale) [3, 22]: 90; Kochia plant response rating (0 to 100 scale) [4, 22]: 0; Pigweed plant response rating (0 to 100 scale) [5, 22]: 100; Ragweed plant response rating (0 to 100 scale) [6, 22]: 10; Pigweed plant response rating (0 to 100 scale) ([14]; Postemergence, 31 g ai/ha): 80; Pigweed plant response rating (0 to 100 scale) [14, 23]: 90; Ragweed plant response rating (0 to 100 scale) ([15]; Postemergence, 31 g ai/ha): 80; Ragweed plant response rating (0 to 100 scale) [15, 23]: 100; Wheat plant response rating (0 to 100 scale) ([16]; Postemergence, 31 g ai/ha): 0; Wheat plant response rating (0 to 100 scale) [16, 23]: 0; Plant response rating, Barnyardgrass (Flood) [17]: 90; Plant response rating, Ducksalad (Flood) [18]: 85; Plant response rating, Rice (Flood) [19]: 85; Plant response rating, Sedge, Umbrella (Flood) [20]: 95
2 | CO/N=C(/c1cccc(/C=C\Cl)c1)c1c(O)c(C)nn(C)c1=O [Compound 287] | 50 | 40 | 10 | 0 | 0 | 0 | 20 | 80 | 0 | 60 | 10 | 30 | 0 | 10 | 10 | 70 | 50 | 70 | 0 | 10 | Ryegrass, Italian plant response rating (0 to 100 scale) [1, 22]: 90; Barnyardgrass plant response rating (0 to 100 scale) [2, 22]: 90; Foxtail, Giant plant response rating (0 to 100 scale) [3, 22]: 40; Kochia plant response rating (0 to 100 scale) [4, 22]: 0; Pigweed plant response rating (0 to 100 scale) [5, 22]: 0; Ragweed plant response rating (0 to 100 scale) [6, 22]: 20; Pigweed plant response rating (0 to 100 scale) ([14]; Postemergence, 31 g ai/ha): 10; Pigweed plant response rating (0 to 100 scale) [14, 23]: 20; Ragweed plant response rating (0 to 100 scale) ([15]; Postemergence, 31 g ai/ha): 20; Ragweed plant response rating (0 to 100 scale) [15, 23]: 50; Wheat plant response rating (0 to 100 scale) ([16]; Postemergence, 31 g ai/ha): 0; Wheat plant response rating (0 to 100 scale) [16, 23]: 0; Plant response rating, Barnyardgrass (Flood) [17]: 0; Plant response rating, Ducksalad (Flood) [18]: 0; Plant response rating, Rice (Flood) [19]: 0; Plant response rating, Sedge, Umbrella (Flood) [20]: 0
3 | CON=C(c1ccc(F)c(Br)c1)c1c(O)c(C)nn(C)c1=O [Compound 176] | 10 | 0 | 0 | 0 | 10 | 10 | 60 | 90 | 30 | 40 | 0 | 30 | 0 | 0 | 10 | 20 | 60 | 90 | 20 | 70 | Ryegrass, Italian plant response rating (0 to 100 scale) ([1]; 125 g ai/ha): 20; Barnyardgrass plant response rating (0 to 100 scale) ([2]; 125 g ai/ha): 0; Foxtail, Giant plant response rating (0 to 100 scale) ([3]; 125 g ai/ha): 10; Kochia plant response rating (0 to 100 scale) ([4]; 125 g ai/ha): 0; Pigweed plant response rating (0 to 100 scale) ([5]; 125 g ai/ha): 60; Ragweed plant response rating (0 to 100 scale) ([6]; 125 g ai/ha): 20; Pigweed plant response rating (0 to 100 scale) ([14]; Postemergence, 31 g ai/ha): 70; Pigweed plant response rating (0 to 100 scale) [14, 23]: 80; Ragweed plant response rating (0 to 100 scale) ([15]; Postemergence, 31 g ai/ha): 30; Ragweed plant response rating (0 to 100 scale) [15, 23]: 70; Wheat plant response rating (0 to 100 scale) ([16]; Postemergence, 31 g ai/ha): 0; Wheat plant response rating (0 to 100 scale) [16, 23]: 0; Plant response rating, Barnyardgrass (Flood) [17]: 0; Plant response rating, Ducksalad (Flood) [18]: 0; Plant response rating, Rice (Flood) [19]: 0; Plant response rating, Sedge, Umbrella (Flood) [20]: 0
